Test results reported in patent US7772192B2, “Compositions and methods for treatment of disease with acetylated disaccharides” (The Regents of the University of California, priority 2003, dated 2010).

Tests used:
[1] = system: sialyl Lewis X in HL-60, LS180, murine Lewis lung carcinoma, B16 murine melanoma cells; assay: Inhibition of sialyl Lewis X formation in cultured cells; assay type: cell-based
Source text: The disaccharides can be acylated with, e.g., acetyl, butyryl or benzoyl groups to reduce their hydrophilicity and make them permeable to cell membranes. […] The various disaccharides described above and their acylated or aryl derivatives are logical extensions of the present invention. In addition, analogs of the above compounds in which critical hydroxyl groups are missing or alkylated would bind to glycosyltransfersase and inhibit their activity.

[2] = system: LS180 cells adhering to recombinant E-selectin; assay: Cell adhesion to immobilized E-selectin; assay type: cell-based, human; conditions: LS180 cells grown 5 days with disaccharide
Method: Cell adhesion to immobilized selectins. 96-well plates were coated overnight at 4° C. with recombinant E-selectin (4 μg/ml) or P-selectin (2 μg/ml) (R & D Systems) and blocked with 1% BSA/PBS. LS180 cells were grown for 5 days with various amounts of acetylated disaccharide, harvested, labeled with Calcein AM (5 μM, Molecular Probes) in DMEM/1% FBS, and allowed to settle at room temperature on selectin-coated wells (5×10^4 cells/well). Plates were then stirred at 75 rpm for 30 min (Orbit shaker, Lab-Line Instruments) followed by immersion upside-down in a vessel filled with Hank's buffered saline solution (HBSS, Sigma), which allowed non-adherent cells to fall under gravity. St John et al., J. Immunol Methods, 170: 159-166, 1994. The wells were then washed by aspiration using HBSS. LS180 cells were less adherent to P-selectin, so the immersion step was not necessary prior to washing. […] Fluorescence was measured using a 96-well fluorimeter (CytoFluor II), and the average of triplicate measurements was determined±standard error. Cell viability was judged to be >90% by Trypan blue exclusion at the end of each experiment.
Adhesion to selectins is altered in disaccharide-treated tumor cells. Treatment of LS180 cells with AcGnG-NM was not toxic to the cells up to 100 μM based on growth curves and exclusion of Trypan blue. […]

[3] = system: LS180 cells; assay: Metastatic lung tumor formation in SCID mice (LS180); assay type: in vivo
Method: Tumor formation. LS180 cells were grown in the presence or absence of 50 μM AcGnG-NM for 6 days, harvested with EDTA, and resuspended in sterile PBS. Approximately 3×10^5 tumor cells in 150 μl PBS were injected into the lateral tail vein of anesthetized 7 week-old immunodeficient mice (Fox Chase SCID; Charles River). The mice were then maintained in microbe-free housing with free access to standard laboratory chow and water, and inspected regularly for any signs of distress. After 4 weeks, mice were euthanized by CO2 asphyxiation under anesthesia, and lungs, livers, brains, kidneys/adrenals, and spleens were fixed in Bouin's solution (Sigma) for 6 hr followed by transfer to 70% ethanol. Lungs for each animal were inspected under a dissecting microscope for the total number of surface tumors. Histologic sections (hematoxylin/eosin) were examined for tumor foci, and representative photomicrographs were taken. The other organs were also reviewed histologically for any tumor foci.
Impairment of metastatic tumor formation. Prior studies have shown that deletion of P-selectin in mice alters the tumorigenicity of hematogenously distributed LS180 cells. Kim et al., Proc. Natl. Acad. Sci. USA, 95: 9325-9330, 1998. […] After 4 weeks, the animals were sacrificed and formation of lung tumor foci was assessed at necropsy by counting nodules on the lung surface and in histologic sections.

[4] = system: HAL8 human metastatic lung adenocarcinoma cells; assay: Metastatic lung tumor formation in SCID mice (HAL8); assay type: in vivo
[5] = system: LS180 cells; assay: Toxicity and growth of LS180 cells in culture; assay type: cell-based, human
Method: Adhesion to selectins is altered in disaccharide-treated tumor cells. Treatment of LS180 cells with AcGnG-NM was not toxic to the cells up to 100 μM based on growth curves and exclusion of Trypan blue. […] LS180 colon carcinoma cells were “panned” onto wells precoated with recombinant E- or P-selectin as indicated. Open circles, adhesion to E-selectin; filled circles, adhesion to P-selectin. The extent of adhesion was normalized to the value obtained for cells not treated with disaccharide. […] Each experimental condition was done in quadruplicate and the average values±standard errors are given. […] Adhesion to P-selectin was more sensitive to the inhibitor than adhesion to E-selectin under these conditions. The inhibitory effect of AcGnG-NM was specific since incubation of cells with acetylated Galβ1,3Galβ-O-NM (AcGG-NM) had no effect on expression of sLe^X or adhesion to either selectin conjugate See FIG. 3. The maximum extent of inhibition approached the values obtained when the cells were pre-treated with sialidase or blocking antibody to the corresponding selectin.
A final consideration is the ability of selectins to participate in “arresting” newly circulating tumor cells in organ capillary beds. Entrapment of emboli may have important consequences on the eventual uptake and growth of tumor “seeds” into large metastatic tumor foci. […]

[6] = system: LLC cells; assay: In vitro characterization of LLC cells (CSLEX-1 binding, lectin and PsIg flow cytometry); assay type: cell-based
Method: LLC cells were treated in culture for 4 days in the absence or presence of 50 μM peracetylated GlcNAcβ3Gal-NM. To quantitate sLex on the surface of LLC cells monoclonal antibody, CSLEX-1 binding to the cells was measured as described (Brown et al, J. Biol. Chem. 278: 23352-23359, 2003). […] Flow cytometry measures cell surface carbohydrate structures (Koenig et al, 1998). AAL and MAH are plant lectins. […] LLC cells have higher sialyltransferase activity than fucosyltransferase activity.

[7] = system: mucin-like oligosaccharides that carry sLe^X determinants; conditions: among several disaccharides; cited from earlier work

With “GlcNAcβ1,3Galβ-O-naphthalenemethanol [AcGnG-NM]” the “formation of sialyl Lewis X” value [1] was “inhibit the formation of sialyl Lewis X”, the “adhesion to recombinant E-selectin” value [2] was “reduced the ability of LS180 cells to adhere” and the lung tumor foci ([3]; cells pretreated with 50 μM for 6 days, 4 weeks, n=8, p<0.0002) was “less numerous”. The tumor size ([3]; treated versus untreated cells) was “approximately the same”, the lung tumor foci [4] was “behaved similarly” and the “LS180 growth in culture” value ([5]; up to 50 μM) was “minimal effects”. For the same substance, the “toxicity to the cells” value ([5]; up to 100 μM, growth curves and exclusion of Trypan blue) was “not toxic”, the “sLex expression (CSLEX-1 binding)” value ([6]; 50 μM, 4 days) was “reduces sLex expression” and the “AAL reactivity (fucose)” value ([6]; flow cytometry) was “reduces AAL reactivity”. For the same substance, the “sialylation (MAH)” value ([6]; flow cytometry) was “no effect on sialylation” and the potency as primer [7] was “highest potency”.
